Biological target: T1, Mucosa-associated lymphoid tissue lymphoma translocation protein 1 (Homo sapiens, UniProt Q9UDY8)
T1 sequence (Q9UDY8 whole entry): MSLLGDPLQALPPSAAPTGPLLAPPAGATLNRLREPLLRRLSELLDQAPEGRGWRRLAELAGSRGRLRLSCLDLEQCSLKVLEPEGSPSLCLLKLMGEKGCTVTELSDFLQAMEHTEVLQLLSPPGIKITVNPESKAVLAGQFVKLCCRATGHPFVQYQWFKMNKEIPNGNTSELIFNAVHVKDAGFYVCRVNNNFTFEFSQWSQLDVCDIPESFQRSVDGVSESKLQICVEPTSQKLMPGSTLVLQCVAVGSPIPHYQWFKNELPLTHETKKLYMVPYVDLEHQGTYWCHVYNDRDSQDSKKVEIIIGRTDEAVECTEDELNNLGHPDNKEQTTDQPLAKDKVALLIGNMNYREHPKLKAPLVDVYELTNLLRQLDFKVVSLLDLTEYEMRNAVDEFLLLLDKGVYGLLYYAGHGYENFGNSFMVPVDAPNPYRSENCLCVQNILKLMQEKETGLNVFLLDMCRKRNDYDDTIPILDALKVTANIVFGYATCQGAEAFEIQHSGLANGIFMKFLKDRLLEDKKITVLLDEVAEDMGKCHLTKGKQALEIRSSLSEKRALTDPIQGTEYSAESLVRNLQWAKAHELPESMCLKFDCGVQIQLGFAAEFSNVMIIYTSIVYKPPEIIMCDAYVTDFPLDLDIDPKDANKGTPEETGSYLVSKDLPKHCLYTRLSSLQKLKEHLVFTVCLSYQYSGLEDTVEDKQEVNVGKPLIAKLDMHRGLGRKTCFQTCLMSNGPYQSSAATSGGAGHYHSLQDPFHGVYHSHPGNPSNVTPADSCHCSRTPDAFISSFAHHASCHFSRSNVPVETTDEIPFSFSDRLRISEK
Test: MALT1 Protease Assay 2
Description: Test compounds were dissolved in 100% DMSO at stock of 10 mM, with final DMSO concentration 0.1%. Test compounds were pre-incubated with MALT1 protein for 2 h at room temperature.

`C[C@]1(C(F)(F)F)CN(C(=O)Nc2cnnc(C(F)F)c2)c2cnc3c(F)c(F)nn3c21` [US20240018157, Example 141] and `C[C@]1(C(F)(F)F)CN(C(=O)Nc2cnnc(C(F)F)c2)c2cnc3c(F)c(Cl)nn3c21` [US20240018157, Example 137] cannot be ordered by IC50: > 1 µM for the first, > 1 µM for the second.

`C[C@@H](O)c1cnn(-c2ncc(NC(=O)N3C[C@@](C)(C(F)(F)F)c4c3cnc3cc(Cl)nn43)cc2Cl)n1` [US20240018157, Example 77] and `C[C@@]1(C(F)(F)F)CN(C(=O)Nc2cnc(-n3ncc([C@@H](O)CO)n3)c(Cl)c2)c2cnc3cc(Cl)nn3c21` [US20240018157, Example 71] cannot be ordered by IC50: < 0.01 µM for the first, < 0.01 µM for the second.

First: C[C@@]1(C(F)(F)F)CN(C(=O)Nc2cnnc(C(F)F)c2)c2cnc3cc(F)nn3c21 [US20240018157, Example 114]
Second: C[C@]1(C(F)(F)F)CN(C(=O)Nc2cnnc(C(F)F)c2)c2cnc3cc(F)nn3c21 [US20240018157, Example 115]
The IC50 of the first is higher: > 1 µM for the first, 0.01 to 0.1 µM for the second.

`CNc1cc(NC(=O)N2C[C@@](C)(C(F)(F)F)c3c2cnc2cc(Cl)nn32)ncc1-n1nccn1` [US20240018157, Example 186] and `CNc1cc(NC(=O)N2C[C@@](C)(C(F)(F)F)c3c2cnc2cc(Cl)nn32)cnc1-n1ccnn1` [US20240018157, Example 187] cannot be ordered by IC50: > 1 µM for the first, > 1 µM for the second.

Compared with `C[C@@]1(C(F)(F)F)CN(C(=O)Nc2cc(C(F)F)ns2)c2cnc3cc(Cl)nn3c21` [US20240018157, Example 179], `C[C@@]1(C(F)(F)F)CN(C(=O)Nc2ccnc(C(F)(F)F)c2)c2cnc3cc(Cl)nn3c21` [US20240018157, Example 27] is lower in IC50: > 1 µM for the first, < 0.01 µM for the second.

`C[C@@]1(C(F)(F)F)CN(C(=O)N[C@H]2CCC(F)(F)C2)c2cnc3cc(Cl)nn3c21` [US20240018157, Example 166] and `C[C@@]1(C(F)(F)F)CN(C(=O)N[C@@H]2CCC(F)(F)C2)c2cnc3cc(Cl)nn3c21` [US20240018157, Example 165] cannot be ordered by IC50: > 1 µM for the first, > 1 µM for the second.

`C[C@@]1(C(F)(F)F)CN(C(=O)Nc2cnc(-n3ncc(CO)n3)c(Cl)c2)c2cnc3cc(Cl)nn3c21` [US20240018157, Example 24] and `COc1cnn(-c2ncc(NC(=O)N3C[C@@](C)(C(F)(F)F)c4c3cnc3cc(Cl)nn43)cc2Cl)n1` [US20240018157, Example 92] cannot be ordered by IC50: < 0.01 µM for the first, < 0.01 µM for the second.

First: CCc1nn2c3c(cnc2c1N)N(C(=O)Nc1cnc(-n2nccn2)c(Cl)c1)C[C@]3(C)C(F)(F)F [US20240018157, Example 157]
Second: Cc1nn2c3c(cnc2c1N)N(C(=O)Nc1cnc(-n2nccn2)c(Cl)c1)C[C@]3(C)C(F)(F)F [US20240018157, Example 159]
The IC50 of the first is higher: 0.1 to 1 µM for the first, 0.01 to 0.1 µM for the second. The second is the more potent here.

First: C[C@@]1(C(F)(F)F)CN(C(=O)Nc2cnc(-n3cc(CO)cn3)c(Cl)c2)c2cnc3cc(Cl)nn3c21 [US20240018157, Example 57]
Second: C[C@@H](O)COc1ncc(NC(=O)N2C[C@@](C)(C(F)(F)F)c3c2cnc2cc(Cl)nn32)cc1Cl [US20240018157, Example 74]
The IC50 of the first is lower: < 0.01 µM for the first, 0.01 to 0.1 µM for the second. The first is the more potent here.

Compared with `C[C@@]1(C(F)(F)F)CN(C(=O)Nc2cc(Cl)c(C(=O)O)c(O[C@H]3CCNC3)n2)c2cnc3cc(Cl)nn3c21` [US20240018157, Example 185], `COc1c(Cl)cc(NC(=O)N2C[C@@](C)(C(F)(F)F)c3c2cnc2cc(Cl)nn32)nc1O[C@H]1CCNC1` [US20240018157, Example 63] is lower in IC50: > 1 µM for the first, < 0.01 µM for the second. The second is the more potent here.

First: O=C(Nc1cnnc(C(F)F)c1)N1C[C@](C2CC2)(C(F)(F)F)c2c1cnc1cc(Cl)nn21 [US20240018157, Example 145]
Second: O=C(Nc1cnnc(C(F)F)c1)N1C[C@@](C2CC2)(C(F)(F)F)c2c1cnc1cc(Cl)nn21 [US20240018157, Example 144]
The IC50 of the first is higher: 0.1 to 1 µM for the first, 0.01 to 0.1 µM for the second.

Going from `C[C@@]1(C(F)(F)F)CN(C(=O)Nc2cnc(-n3nccn3)c(Cl)c2)c2cnc3cc(F)nn3c21` [US20240018157, Example 39] to `Cc1cc(NC(=O)N2C[C@](C)(C(F)(F)F)c3c2cnc2cc(F)nn32)cnc1-n1nccn1` [US20240018157, Example 124], the IC50 rises from < 0.01 µM to > 1 µM.

First: CC1CC(NC(=O)N2C[C@@](C)(C(F)(F)F)c3c2cnc2cc(Cl)nn32)CCO1 (stereo partly drawn) [US20240018157, Example 173]
Second: C[C@@]1(C(F)(F)F)CN(C(=O)N[C@H]2CCCC(F)(F)C2)c2cnc3cc(Cl)nn3c21 [US20240018157, Example 53]
The IC50 of the first is higher: > 1 µM for the first, 0.1 to 1 µM for the second. The second is the more potent here.

First: Cc1nnc(C(F)F)cc1NC(=O)N1C[C@@](C)(C(F)(F)F)c2c1cnc1cc(F)nn21 [US20240018157, Example 161]
Second: C[C@@]1(C(F)(F)F)CN(C(=O)Nc2cnnc(C(F)F)c2)c2cnc3cc(OC(F)F)nn3c21 [US20240018157, Example 200]
The IC50 of the first is lower: 0.1 to 1 µM for the first, > 1 µM for the second. The first is the more potent here.

`CN1CC(n2nc(NC(=O)N3C[C@@](C)(C(F)(F)F)c4c3cnc3cc(Cl)nn43)cc2Cl)C1` [US20240018157, Example 163] and `C[C@@]1(C(F)(F)F)CN(C(=O)Nc2cnc(C3COC3)c(Cl)c2)c2cnc3cc(Cl)nn3c21` [US20240018157, Example 209] cannot be ordered by IC50: > 1 µM for the first, > 1 µM for the second.

`CO[C@@]1(C(F)(F)F)CN(C(=O)Nc2cnc(-n3nccn3)c(Cl)c2)c2cnc3cc(Cl)nn3c21` [US20240018157, Example 136] and `O=C(Nc1cnc(-n2nccn2)c(Cl)c1)N1CC(O)(C(F)(F)F)c2c1cnc1cc(Cl)nn21` (stereo not drawn) [US20240018157, Example 201] cannot be ordered by IC50: < 0.01 µM for the first, < 0.01 µM for the second.

Compared with `C[C@]1(C(F)(F)F)CN(C(=O)Nc2cnc(-n3nccn3)c(Cl)c2)c2cnc3c(F)cnn3c21` [US20240018157, Example 147], `C[C@@]1(C(F)(F)F)CN(C(=O)Nc2cnc(-n3nccn3)c(Cl)c2)c2cnc3c(F)cnn3c21` [US20240018157, Example 146] is lower in IC50: > 1 µM for the first, < 0.01 µM for the second.

First: Cc1cn2ncc3c(c2n1)[C@@](C)(C(F)(F)F)CN3C(=O)Nc1cnnc(C(F)F)c1 [US20240018157, Example 120]
Second: C[C@@]1(C(F)(F)F)CN(C(=O)Nc2cnnc(C(F)F)c2)c2cnc3c(F)c(Cl)nn3c21 [US20240018157, Example 138]
The IC50 of the first is higher: > 1 µM for the first, 0.01 to 0.1 µM for the second. The second is the more potent here.

First: COC1CN(C(=O)c2ncc(NC(=O)N3CC(C)(C)c4c3cnn3cc(C)nc43)cc2Cl)C1 [US20240018157, Example 207]
Second: CN(C)C(=O)c1ncc(NC(=O)N2C[C@@](C)(C(F)(F)F)c3c2cnc2cc(Cl)nn32)cc1C(F)F [US20240018157, Example 122]
The IC50 of the first is higher: > 1 µM for the first, < 0.01 µM for the second. The second is the more potent here.

First: C[C@H](O)c1cnnn1-c1ncc(NC(=O)N2C[C@@](C)(C(F)(F)F)c3c2cnc2cc(Cl)nn32)cc1C(F)F [US20240018157, Example 184]
Second: C[C@@]1(C(F)(F)F)CN(C(=O)Nc2cnc(-n3ccnn3)c(C(F)F)c2)c2cnc3cc(Cl)nn3c21 [US20240018157, Example 36]
The IC50 of the first is higher: 0.01 to 0.1 µM for the first, < 0.01 µM for the second. The second is the more potent here.

First: C[C@@]1(C(F)(F)F)CN(C(=O)Nc2cnc(-n3nccn3)c(C(F)F)c2)c2cnc3cc(F)nn3c21 [US20240018157, Example 104]
Second: C[C@]1(C(F)(F)F)CN(C(=O)Nc2cnc(-n3nccn3)c(C(F)F)c2)c2cnc3cc(F)nn3c21 [US20240018157, Example 105]
The IC50 of the first is lower: < 0.01 µM for the first, 0.1 to 1 µM for the second.

`C[C@]1(C(F)(F)F)CN(C(=O)Nc2cnnc(C(F)F)c2)c2cnc3cc(C#N)nn3c21` [US20240018157, Example 189] and `C[C@]1(C(F)(F)F)CN(C(=O)Nc2cnnc(C(F)F)c2)c2cnc3cc(CC(F)F)nn3c21` [US20240018157, Example 155] fall in the same range of IC50: 0.1 to 1 µM for the first, 0.1 to 1 µM for the second.

`C[C@@]1(C(F)(F)F)CN(C(=O)N[C@@H]2CCCC[C@H]2O)c2cnc3cc(Cl)nn3c21` [US20240018157, Example 171] and `C[C@@]1(C(F)(F)F)CN(C(=O)NC2CCC3(CCCO3)CC2)c2cnc3cc(Cl)nn3c21` (stereo partly drawn) [US20240018157, Example 174] cannot be ordered by IC50: > 1 µM for the first, > 1 µM for the second.

First: COc1cnc(C(F)(F)F)cc1NC(=O)N1C[C@@](C)(C(F)(F)F)c2c1cnc1cc(Cl)nn21 [US20240018157, Example 66]
Second: CCOc1cc(NC(=O)N2C[C@@](C)(C(F)(F)F)c3c2cnc2cc(Cl)nn32)cn(C(F)F)c1=O [US20240018157, Example 93]
The IC50 of the first is lower: < 0.01 µM for the first, 0.01 to 0.1 µM for the second. The first is the more potent here.

`C[C@]1(C(F)(F)F)CN(C(=O)Nc2cnc(-n3nccn3)c(C(F)(F)F)c2)c2cnc3cc(F)nn3c21` [US20240018157, Example 182] and `Cc1nn2c3c(cnc2c1N)N(C(=O)Nc1cnc(-n2nccn2)c(Cl)c1)C[C@@]3(C)C(F)(F)F` [US20240018157, Example 160] cannot be ordered by IC50: > 1 µM for the first, > 1 µM for the second.

Going from `C[C@@]1(C(F)(F)F)CN(C(=O)Nc2cnc(C3(O)CCC3)c(Cl)c2)c2cnc3cc(Cl)nn3c21` [US20240018157, Example 168] to `C[S@+]([O-])c1ccc(NC(=O)N2C[C@@](C)(C(F)(F)F)c3c2cnc2cc(Cl)nn32)cc1C(F)F` [US20240018157, Example 116], the IC50 falls from > 1 µM to < 0.01 µM.

`C[C@@]1(C(F)(F)F)CN(C(=O)Nc2cnnc(C(F)F)c2)c2cnc3cc(CC(F)(F)F)nn3c21` [US20240018157, Example 197] was tested, and the IC50 was > 1 µM.
